Laboratory results taken from PMC5668434, “Modulation of telomere protection by the PI3K/AKT pathway” (Nature Communications, 2017).
Like-named read-outs stand apart in the source and are kept apart here.

Tests used:
[1] = test system: TRF1 foci in CHA-9.3 mouse lung tumor cell line; experiment: TRF1 foci immunofluorescence in CHA-9.3 cells; assay type: cell-based; settings: for Inhibition of TRF1 foci (in words): 10 μM (GSK-2126458 1.0 μM)
Procedure: TRF1 immunofluorescence of TRF1 was performed in lung tumor-derived cell line (CHA9.3) and in MEFs[39]. A rat monoclonal antibody against mouse TRF1 developed by the Monoclonal antibody unit at CNIO was used to detect endogenous TRF1 (1:500). GFP-TRF1 fluorescence was directly measured in cells fixed in paraformaldehyde. For quantification of TRF1 foci intensity, pictures of fixed cells were automatically acquired from each well by the Opera HCS system (Perkin Elmer). Sixty images of random fields per well, with a 40× magnification lens, were taken under non-saturating conditions. At least 1 × 10^3 cells were analyzed for each well. Briefly, images were segmented using the DAPI staining to generate masks matching cell nuclei from which-TRF1 foci were analyzed.

[2] = target: T1, mTOR (FRAP1) (Homo sapiens, UniProt P42345); experiment: mTOR biochemical assay (LanthaScreen); settings: for IC50: internal data
T1 construct: purchased ThermoFisher PV4753
T1 sequence (P42345 1360-2549 limits assumed): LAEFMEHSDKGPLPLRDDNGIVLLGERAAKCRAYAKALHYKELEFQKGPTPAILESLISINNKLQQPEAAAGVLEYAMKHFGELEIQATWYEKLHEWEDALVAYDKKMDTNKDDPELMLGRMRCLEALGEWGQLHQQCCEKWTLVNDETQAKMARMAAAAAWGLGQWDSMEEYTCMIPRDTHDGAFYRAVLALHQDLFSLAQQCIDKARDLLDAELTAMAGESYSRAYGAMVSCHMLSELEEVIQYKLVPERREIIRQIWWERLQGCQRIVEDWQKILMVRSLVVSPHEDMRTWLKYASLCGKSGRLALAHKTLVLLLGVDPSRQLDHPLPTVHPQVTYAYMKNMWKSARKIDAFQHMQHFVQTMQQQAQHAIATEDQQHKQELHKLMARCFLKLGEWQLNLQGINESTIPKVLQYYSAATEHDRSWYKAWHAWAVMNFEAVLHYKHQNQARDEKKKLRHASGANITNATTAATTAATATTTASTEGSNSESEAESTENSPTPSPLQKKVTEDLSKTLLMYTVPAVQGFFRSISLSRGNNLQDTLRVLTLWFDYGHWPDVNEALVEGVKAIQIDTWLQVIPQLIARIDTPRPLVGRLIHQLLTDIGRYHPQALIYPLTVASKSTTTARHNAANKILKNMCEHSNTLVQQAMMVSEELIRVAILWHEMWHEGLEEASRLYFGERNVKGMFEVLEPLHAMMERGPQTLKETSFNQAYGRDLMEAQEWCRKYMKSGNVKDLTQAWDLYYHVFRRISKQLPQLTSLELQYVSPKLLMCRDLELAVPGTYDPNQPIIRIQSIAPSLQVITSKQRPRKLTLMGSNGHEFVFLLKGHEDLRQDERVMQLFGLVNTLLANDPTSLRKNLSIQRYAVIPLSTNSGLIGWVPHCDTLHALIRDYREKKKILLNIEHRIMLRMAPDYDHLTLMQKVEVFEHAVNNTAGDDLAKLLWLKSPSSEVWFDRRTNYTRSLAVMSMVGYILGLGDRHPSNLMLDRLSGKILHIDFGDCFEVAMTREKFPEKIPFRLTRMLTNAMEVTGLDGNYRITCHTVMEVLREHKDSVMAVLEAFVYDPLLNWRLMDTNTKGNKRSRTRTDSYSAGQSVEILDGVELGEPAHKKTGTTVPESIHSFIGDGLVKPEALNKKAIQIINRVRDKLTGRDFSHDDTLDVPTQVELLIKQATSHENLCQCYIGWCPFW

[3] = target: T2, PI3K (p110α) (Homo sapiens, UniProt P42336); experiment: PI3K alpha biochemical assay (ADP Hunter Plus); settings: for IC50: internal data, read-out: PI3Kα IC50
T2 construct: purchased Cama Biosciences (sic; Carna Biosciences) #07CBS-0402A
T2 sequence (P42336 whole entry): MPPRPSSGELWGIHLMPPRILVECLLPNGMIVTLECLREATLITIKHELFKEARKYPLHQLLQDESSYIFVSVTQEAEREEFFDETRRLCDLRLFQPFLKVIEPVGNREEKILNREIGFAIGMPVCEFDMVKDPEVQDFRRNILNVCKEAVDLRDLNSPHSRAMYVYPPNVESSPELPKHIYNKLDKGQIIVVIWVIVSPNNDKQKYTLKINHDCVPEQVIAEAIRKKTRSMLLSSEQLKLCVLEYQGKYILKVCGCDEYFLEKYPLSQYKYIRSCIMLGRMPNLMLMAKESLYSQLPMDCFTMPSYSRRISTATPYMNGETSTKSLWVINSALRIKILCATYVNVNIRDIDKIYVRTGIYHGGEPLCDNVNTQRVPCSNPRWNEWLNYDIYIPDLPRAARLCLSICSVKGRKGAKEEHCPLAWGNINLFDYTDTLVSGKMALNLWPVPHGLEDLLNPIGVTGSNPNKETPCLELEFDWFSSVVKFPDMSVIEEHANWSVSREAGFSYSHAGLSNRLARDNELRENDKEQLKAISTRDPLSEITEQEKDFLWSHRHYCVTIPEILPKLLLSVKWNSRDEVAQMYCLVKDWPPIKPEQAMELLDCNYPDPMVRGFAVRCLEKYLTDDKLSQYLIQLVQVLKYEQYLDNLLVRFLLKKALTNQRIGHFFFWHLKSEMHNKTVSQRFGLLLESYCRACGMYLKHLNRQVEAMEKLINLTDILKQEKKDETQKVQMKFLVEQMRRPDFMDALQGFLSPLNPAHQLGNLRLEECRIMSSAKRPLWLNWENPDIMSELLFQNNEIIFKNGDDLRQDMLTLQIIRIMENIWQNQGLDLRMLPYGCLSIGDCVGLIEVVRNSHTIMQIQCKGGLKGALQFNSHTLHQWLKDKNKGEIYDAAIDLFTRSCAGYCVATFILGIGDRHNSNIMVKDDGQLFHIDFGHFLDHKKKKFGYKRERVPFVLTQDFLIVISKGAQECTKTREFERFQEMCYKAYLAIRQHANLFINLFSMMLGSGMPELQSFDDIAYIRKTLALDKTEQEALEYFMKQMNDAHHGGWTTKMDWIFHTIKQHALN
T2 sequence (P27986 whole entry partner): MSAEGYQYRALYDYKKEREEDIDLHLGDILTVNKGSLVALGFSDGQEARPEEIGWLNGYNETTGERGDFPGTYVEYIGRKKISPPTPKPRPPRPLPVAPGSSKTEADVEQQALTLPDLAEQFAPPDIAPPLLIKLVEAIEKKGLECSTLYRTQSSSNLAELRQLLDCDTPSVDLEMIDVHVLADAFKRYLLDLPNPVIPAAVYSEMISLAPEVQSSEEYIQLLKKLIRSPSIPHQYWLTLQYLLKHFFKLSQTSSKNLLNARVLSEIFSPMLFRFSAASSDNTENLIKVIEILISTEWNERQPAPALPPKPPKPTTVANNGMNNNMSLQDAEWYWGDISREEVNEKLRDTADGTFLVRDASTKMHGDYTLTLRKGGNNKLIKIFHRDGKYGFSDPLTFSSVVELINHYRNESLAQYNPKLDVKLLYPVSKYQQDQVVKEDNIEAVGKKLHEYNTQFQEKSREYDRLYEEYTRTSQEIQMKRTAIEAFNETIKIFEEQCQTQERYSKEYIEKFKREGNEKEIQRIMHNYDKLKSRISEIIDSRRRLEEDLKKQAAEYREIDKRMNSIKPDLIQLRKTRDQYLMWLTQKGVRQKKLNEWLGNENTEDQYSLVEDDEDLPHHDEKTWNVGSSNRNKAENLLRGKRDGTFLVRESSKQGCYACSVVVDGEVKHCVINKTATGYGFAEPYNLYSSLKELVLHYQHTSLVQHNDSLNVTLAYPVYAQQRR

[4] = test system: p-AKT S473 in CHA-9.3 mouse lung cancer cell line; experiment: Western blot of AKT phosphorylation at Ser473 in CHA-9.3 cells; assay type: cell-based; settings: for p-AKT S473 inhibition (in words): 10 μM time course; for inhibition at 10 µM: Mus musculus, read-out: Inhibition pAKT (Ser 473) with regard to DMSO
Procedure: These new chemical probes were prepared by replacement of a single key oxygen atom from the morpholine moiety by a methylene group, generating the piperidine derivatives ETP-51259 and ETP-50952 (Fig. 1a). To assess their PI3K cellular activity, we measured phosphorylation of residue Ser473 in AKT (p-AKT S473), a PI3K downstream target[61]–[63], by western blot analysis. To this end, we used the CHA-9.3 mouse lung cancer cell line previously generated by us[39]. […] Of note, the inhibitory activity of ETP-47037 was more prolonged than that of ETP-47228. Thus, ETP-47037 mediated p-AKT S473 inhibition was maintained during the 24-hour treatment while the ETP-47228 mediated inhibition decreased 35% after 24 h as compared to 1-h treatment but still was able to inhibit the pathway above 50% (Fig. 1c).
For detection of AKT, PRAS40 (T246) and pS6 in CHA9.3 cells, untreated control (DMSO) or treated with the indicated inhibitors, were lysed in RIPA buffer supplemented with 100 mM pefablock (Roche Diagnostics) and protease inhibitor cocktail (Roche Molecular Biochemicals). Proteins were resolved on 10% SDS-PAGE, and transferred to nitrocellulose membrane (Amersham^TM Protan^TM 0.2 µm nNC). Membranes were incubated with antibodies against phospho-AKT (Ser473), AKT, phospo-S6 (Ser 235/236), and S6Ribosomal from Cell Signaling, phospo-PRAS40 (Thr246) from BIOSURCE and anti α-tubulin form Sigma, overnight at 4 °C. After washing, blots were incubated with secondary antibody: Alexa Fluor 680 goat anti-rabbit IgG (Invitrogen) or anti-mouse IgG DyLight 800 conjugated (Thermo Scientific), and visualized using an Odyssey infrared imaging system (Li-Cor Biosciences).

[5] = test system: PI3Kβ; settings: reported in literature, cited from earlier work
[6] = test system: PI3Kα; settings: reported in literature, cited from earlier work
[7] = test system: mTOR; settings: reported in literature; cited from earlier work
[8] = test system: PI3Kγ; settings: reported in literature, cited from earlier work
[9] = test system: TRF1 mRNA in CHA 9-3 lung cancer cells; experiment: TRF1 mRNA by qPCR; assay type: cell-based, mouse; settings: 10 μM, 24 h
[10] = test system: PI3Kδ; settings: reported in literature, cited from earlier work
[11] = target: the molecule itself; experiment: western blot after SDS-PAGE in non-reducing conditions; nuclear extracts of Trf1-deleted MEFs expressing the GFP-tagged TRF1 variant, prepared without dithiothreitol and 2-mercaptoethanol, not heated before gel loading; blot against TRF1; one wild-type sample in reducing conditions shows the monomer

For CC(C)C[C@H](NC(=O)[C@H](Cc1ccccc1)NC(=O)c1cnccn1)B(O)O [Bortezomib, reference compound], the TRF1 intensity levels ([1]; bortezomib 50 nM, CHA 9-3) was “twofold increase”.

In the case of Cc1cnc2c(N3CCCCC3)nc(-c3ccc(NC(=O)Nc4ccc(C(=O)N5CCN(C)CC5)cc4)cc3)cn12 [ETP-50952], the IC50 [2] is reported as greater than 10 µM, the “Activity against PI3K (in words)” value [3] is reported as “negligible activity against PI3K” and the IC50 [3] is reported as 9 µM. For the same molecule, the “Inhibition of TRF1 foci (in words)” value ([1]; 24 h, CHA-9.3) was “negligible inhibition of TRF1 foci”, the “p-AKT S473 inhibition (in words)” value [4] was “largely unaffected” and the inhibition at 10 µM ([4]; 1 h, 1 h) was 38%. The inhibition at 10 µM ([4]; 4 h, 4 h) was 18% and the inhibition at 10 µM ([4]; 24 h, 24 h) was 10%.

With Cc1cc(C(C)Nc2ccccc2)c2nc(N3CCOCC3)cc(=O)n2c1 (stereo not drawn) [TGX-221, reference compound] the “PI3Kα inhibition (in words)” value [3] was “negligible PI3Kα inhibition”, the inhibition at 10 µM ([1]; Mus musculus, 10 μM, 24 h, CHA-9.3, relative to DMSO, read-out: Inhibition of TRF1 foci fluorescence) was 10% and the “Phosphorylation of AKT (p-AKT S473) (in words)” value ([4]; 10 μM (GSK-2126458 1.0 μM), 24 h) was “moderate inhibition”. For the same molecule, the IC50 [5] was […] and the “Reported selectivity for PI3Kβ vs. PI3Kα” value [5] was […].

In the case of Cn1c(=O)n(-c2ccc(C(C)(C)C#N)cc2)c2c3cc(-c4cnc5ccccc5c4)ccc3ncc21 [BEZ-235], the “mTOR inhibition (in words)” value [2] is listed as “potent nanomolar mTOR inhibition”, the IC50 [6] is listed as 0.004 µM and the IC50 [7] is listed as […]. For the same molecule, the IC50 [8] was 0.075 µM and the IC50 [5] was 0.005 µM.

In the case of CS(=O)(=O)N1CCN(Cc2cc3nc(-c4cccc5[nH]ncc45)nc(N4CCOCC4)c3s2)CC1 [GDC-0941, 2-(1H-indazol-4-yl)-6-(4-methanesulfonyl-piperazin-1-ylmethyl)-4-morpholin-4-yl-t hieno[3,2-d]pyrimidine], the “TRF1 mRNA levels” value [9] is given as “None of the inhibitors significantly affected”, the IC50 [10] is given as […] and the IC50 [8] is given as […]. The IC50 [5] was […].

For COCCNC(=O)c1nc2c(N3CCOCC3)nc(-c3cnc(N)nc3)cn2c1C [ETP-46992], the IC50 [2] is listed as 3.69 µM, the Ki ([6]; read-out: Reported data PI3Kα Kiapp) is listed as 0.0024 µM and the IC50 [7] is listed as greater than 3 µM. The Ki ([10]; read-out: Reported data PI3Kδ Kiapp) was […], the Ki ([8]; read-out: Reported data PI3Kγ Kiapp) was […] and the Ki ([5]; read-out: Reported data PI3Kβ Kiapp) was […].

In the case of CS(=O)(=O)N1CCN(Cc2cc3c(N4CCCCC4)nc(-c4cnc(N)nc4)cn3n2)CC1 [ETP-51259], the IC50 [2] is reported as greater than 10 µM, the “Activity against PI3K (in words)” value [3] is reported as “negligible activity against PI3K” and the IC50 [3] is reported as greater than 10 µM. For the same molecule, the “Inhibition of TRF1 foci (in words)” value ([1]; 24 h, CHA-9.3) was “negligible inhibition of TRF1 foci”, the “p-AKT S473 inhibition (in words)” value [4] was “largely unaffected” and the inhibition at 10 µM ([4]; 1 h, 1 h) was 48%. The inhibition at 10 µM ([4]; 4 h, 4 h) was 49% and the inhibition at 10 µM ([4]; 16 h, 16 h) was 4%.

B1: eGFP-tagged TRF1 wild type (natural protein, mouse, UniProt P70371 1-421, looked up)
chain: MAETVSSAARDAPSREGWTDSDSPEQEEVGDDAELLQCQLQLGTPREMENAELVAEVEAVAAGWMLDFLCLSLCRAFRDGRSEDFRRTRDSAEAIIHGLHRLTAYQLKTVYICQFLTRVASGKALDAQFEVDERITPLESALMIWNSIEKEHDKLHDEIKNLIKIQAVAVCMEIGSFKEAEEVFERIFGDPEFYTPLERKLLKIISQKDVFHSLFQHFSYSCMMEKIQSYVGDVLSEKSSTFLMKAATKVVENEKARTQASKDRPDATNTGMDTEVGLNKEKSVNGQQSTETEPLVDTVSSIRSHKNALSQLKHRRAPSDFSRNEARTGTLQCETTMERNRRTSGRNRLCVSENQPDTDDKSGRRKRQTWLWEEDRILKCGVKKYGEGNWAKILSHYKFNNRTSVMLKDRWRTMKRLKLIS
notes: insert of the retroviral vector eGFP-TRF1 pWzl-Hygro; also called GFP-TRF1; eGFP-TRF1; source: Trf1 lox/lox MEFs, retroviral transduction (eGFP-TRF1 pWzl-Hygro), endogenous Trf1 deleted with Cre, in nuclear extract
For B1, the “stoichiometry N” value [11] was 2.

B2: eGFP-tagged TRF1 T248A (natural protein, mouse, UniProt P70371 1-421, looked up)
chain: MAETVSSAARDAPSREGWTDSDSPEQEEVGDDAELLQCQLQLGTPREMENAELVAEVEAVAAGWMLDFLCLSLCRAFRDGRSEDFRRTRDSAEAIIHGLHRLTAYQLKTVYICQFLTRVASGKALDAQFEVDERITPLESALMIWNSIEKEHDKLHDEIKNLIKIQAVAVCMEIGSFKEAEEVFERIFGDPEFYTPLERKLLKIISQKDVFHSLFQHFSYSCMMEKIQSYVGDVLSEKSSTFLMKAAAKVVENEKARTQASKDRPDATNTGMDTEVGLNKEKSVNGQQSTETEPLVDTVSSIRSHKNALSQLKHRRAPSDFSRNEARTGTLQCETTMERNRRTSGRNRLCVSENQPDTDDKSGRRKRQTWLWEEDRILKCGVKKYGEGNWAKILSHYKFNNRTSVMLKDRWRTMKRLKLIS
notes: insert of the retroviral vector eGFP-TRF1 pWzl-Hygro with T248A; Made by site-directed mutagenesis of the vector of m1 with the primer mTRF1-T248A; also called GFP-TRF1 T248A
In the case of B2, the “stoichiometry N” value [11] is reported as 2.

B3: eGFP-tagged TRF1 T330A (natural protein, mouse, UniProt P70371 1-421, looked up)
chain: MAETVSSAARDAPSREGWTDSDSPEQEEVGDDAELLQCQLQLGTPREMENAELVAEVEAVAAGWMLDFLCLSLCRAFRDGRSEDFRRTRDSAEAIIHGLHRLTAYQLKTVYICQFLTRVASGKALDAQFEVDERITPLESALMIWNSIEKEHDKLHDEIKNLIKIQAVAVCMEIGSFKEAEEVFERIFGDPEFYTPLERKLLKIISQKDVFHSLFQHFSYSCMMEKIQSYVGDVLSEKSSTFLMKAATKVVENEKARTQASKDRPDATNTGMDTEVGLNKEKSVNGQQSTETEPLVDTVSSIRSHKNALSQLKHRRAPSDFSRNEARTGALQCETTMERNRRTSGRNRLCVSENQPDTDDKSGRRKRQTWLWEEDRILKCGVKKYGEGNWAKILSHYKFNNRTSVMLKDRWRTMKRLKLIS
notes: insert of the retroviral vector eGFP-TRF1 pWzl-Hygro with T330A; Made by site-directed mutagenesis of the vector of m1 with the primer mTRF1-T330A; also called GFP-TRF1 T330A
In the case of B3, the “stoichiometry N” value [11] is reported as 2.

B4: eGFP-tagged TRF1 S344A (natural protein, mouse, UniProt P70371 1-421, looked up)
chain: MAETVSSAARDAPSREGWTDSDSPEQEEVGDDAELLQCQLQLGTPREMENAELVAEVEAVAAGWMLDFLCLSLCRAFRDGRSEDFRRTRDSAEAIIHGLHRLTAYQLKTVYICQFLTRVASGKALDAQFEVDERITPLESALMIWNSIEKEHDKLHDEIKNLIKIQAVAVCMEIGSFKEAEEVFERIFGDPEFYTPLERKLLKIISQKDVFHSLFQHFSYSCMMEKIQSYVGDVLSEKSSTFLMKAATKVVENEKARTQASKDRPDATNTGMDTEVGLNKEKSVNGQQSTETEPLVDTVSSIRSHKNALSQLKHRRAPSDFSRNEARTGTLQCETTMERNRRTAGRNRLCVSENQPDTDDKSGRRKRQTWLWEEDRILKCGVKKYGEGNWAKILSHYKFNNRTSVMLKDRWRTMKRLKLIS
notes: insert of the retroviral vector eGFP-TRF1 pWzl-Hygro with S344A; Made by site-directed mutagenesis of the vector of m1 with the primer mTRF1-S344A; also called GFP-TRF1 S344A
With B4 the “stoichiometry N” value [11] was 2.

B5: eGFP-tagged TRF1 T330A/S344A (natural protein, mouse, UniProt P70371 1-421, looked up)
chain: MAETVSSAARDAPSREGWTDSDSPEQEEVGDDAELLQCQLQLGTPREMENAELVAEVEAVAAGWMLDFLCLSLCRAFRDGRSEDFRRTRDSAEAIIHGLHRLTAYQLKTVYICQFLTRVASGKALDAQFEVDERITPLESALMIWNSIEKEHDKLHDEIKNLIKIQAVAVCMEIGSFKEAEEVFERIFGDPEFYTPLERKLLKIISQKDVFHSLFQHFSYSCMMEKIQSYVGDVLSEKSSTFLMKAATKVVENEKARTQASKDRPDATNTGMDTEVGLNKEKSVNGQQSTETEPLVDTVSSIRSHKNALSQLKHRRAPSDFSRNEARTGALQCETTMERNRRTAGRNRLCVSENQPDTDDKSGRRKRQTWLWEEDRILKCGVKKYGEGNWAKILSHYKFNNRTSVMLKDRWRTMKRLKLIS
notes: insert of the retroviral vector eGFP-TRF1 pWzl-Hygro with T330A and S344A; Made by site-directed mutagenesis of the vector of m1 with the primers mTRF1-T330A and mTRF1-S344A; also called TRF1 double mutant; GFP-TRF1 T330A/S344A
With B5 the “stoichiometry N” value [11] was 2.
